Consider 10 compounds from patent US4861769A, “Cephem compounds” (Fujisawa Pharmaceutical Co., Ltd., priority 1985, dated 1989).

Converted amounts (≈) assume the structure as drawn. Where only a bound is given, the exact number is not on record here.

Holding throughout (type): cell-based
The subject of one assay is S. aureus 209P JC-1. Description: In vitro antibacterial activity, two-fold agar-plate dilution method (MIC), S. aureus 209P JC-1. The note with it: Staphylococcus aureus, heart infusion agar, 37° C., 20 hours, read-out: MIC (minimal inhibitory concentration). As to the method: (§1) Now in order to show the utility of the object compounds [I], the test data on MIC (minimal inhibitory concentration) of representative compounds [I] of this invention are shown in the following.
(§2) In vitro antibacterial activity was determined by the two-fold agar-plate dilution method as described below.
(§3) One loopful of an overnight culture of each test strain in Trypticase-soy broth (10^6 viable cells per ml) was streaked on heart infusion agar (HI-agar) containing graded concentrations of representative test compound, and the minimal inhibitory concentration (MIC) was expressed in terms of μg/ml after incubation at 37° C. for 20 hours.

The next assay deals with E. coli 31. Description: In vitro antibacterial activity, two-fold agar-plate dilution method (MIC), E. coli 31. Conditions: Escherichia coli, heart infusion agar, 37° C., 20 hours, read-out: MIC (minimal inhibitory concentration). The procedure: as §1, §2, §3
Another assay deals with E. coli 58. As to the kind of experiment: In vitro antibacterial activity, two-fold agar-plate dilution method (MIC), E. coli 58. The note with it: Escherichia coli, heart infusion agar, 37° C., 20 hours, read-out: MIC (minimal inhibitory concentration). As to the method: as §1, §2, §3
The next assay deals with P. mirabilis 1. As to the kind of experiment: In vitro antibacterial activity, two-fold agar-plate dilution method (MIC), P. mirabilis 1. Conditions: Proteus mirabilis, heart infusion agar, 37° C., 20 hours, read-out: MIC (minimal inhibitory concentration). The procedure:
as §1, §2, §3

A further assay deals with P. vulgaris IAM 1025. As to the kind of experiment: In vitro antibacterial activity, two-fold agar-plate dilution method (MIC), P. vulgaris IAM 1025. Conditions: Proteus vulgaris, IAM1025, heart infusion agar, 37° C., 20 hours, read-out: MIC (minimal inhibitory concentration). As to the method: as §1, §2, §3

In the case of `CC(=O)OCC1=C(C(=O)O)N2C(=O)[C@@H](NC(=O)/C(=N\OC3CC3)c3csc(N)n3)[C@H]2SC1` [(9)], the MIC in the assay with S. aureus 209P JC-1 was 1.56 µg/mL (≈ 3.24 µM); in the assay on E. coli 31, 0.05 µg/mL (≈ 0.104 µM); with E. coli 58, 0.05 µg/mL (≈ 0.104 µM); in the assay with P. mirabilis 1, 0.05 µg/mL (≈ 0.104 µM); in the assay with P. vulgaris IAM 1025, at most 0.025 µg/mL.

With `Nc1nc(/C(=N/OC2CC2Cl)C(=O)N[C@@H]2C(=O)N3C(C(=O)O)=C(CSc4nncs4)CS[C@H]23)cs1` (single isomer, unassigned) [(7)], the MIC is 0.39 µg/mL (≈ 0.679 µM) with S. aureus 209P JC-1; at most 0.025 µg/mL in the assay on E. coli 31; 0.05 µg/mL (≈ 0.0871 µM) in the assay on E. coli 58; 0.2 µg/mL (≈ 0.348 µM) in the assay with P. mirabilis 1; at most 0.025 µg/mL in the assay with P. vulgaris IAM 1025.

Regarding `Nc1nc(/C(=N/OC2CC2)C(=O)N[C@@H]2C(=O)N3C(C(=O)O)=C(CSc4cnns4)CS[C@H]23)cs1` [(8)], the MIC in the assay on S. aureus 209P JC-1 is 0.78 µg/mL (≈ 1.45 µM); with E. coli 31 it was at most 0.025 µg/mL; with E. coli 58 it was 0.05 µg/mL (≈ 0.0927 µM); with P. mirabilis 1, 0.1 µg/mL (≈ 0.185 µM); in the assay with P. vulgaris IAM 1025 it was 0.1 µg/mL (≈ 0.185 µM).

Turning to `Nc1nc(/C(=N/OC2CC2)C(=O)N[C@@H]2C(=O)N3C(C(=O)O)=C(CSc4ncns4)CS[C@H]23)cs1` [(5)], the MIC with S. aureus 209P JC-1 is 0.39 µg/mL (≈ 0.723 µM); in the assay with E. coli 31 it was at most 0.025 µg/mL; in the assay on E. coli 58, at most 0.025 µg/mL; in the assay with P. mirabilis 1 it was 0.05 µg/mL (≈ 0.0927 µM); in the assay on P. vulgaris IAM 1025, at most 0.025 µg/mL.

For the compound `Cn1c(SCC2=C(C(=O)O)N3C(=O)[C@@H](NC(=O)/C(=N\OC4CC4)c4csc(N)n4)[C@H]3SC2)n[nH]c(=O)c1=O` [(3)], the MIC was 0.39 µg/mL (≈ 0.672 µM) in the assay with S. aureus 209P JC-1; at most 0.025 µg/mL in the assay with E. coli 31; at most 0.025 µg/mL in the assay on E. coli 58; 0.05 µg/mL (≈ 0.0861 µM) with P. mirabilis 1; 0.05 µg/mL (≈ 0.0861 µM) in the assay on P. vulgaris IAM 1025.

With `Nc1nc(/C(=N/OC2CC2)C(=O)N[C@@H]2C(=O)N3C(C(=O)O)=C(CSc4nncs4)CS[C@H]23)cs1` [(2)], the MIC was 0.39 µg/mL (≈ 0.723 µM) in the assay on S. aureus 209P JC-1; at most 0.025 µg/mL in the assay with E. coli 31; at most 0.025 µg/mL in the assay with E. coli 58; 0.05 µg/mL (≈ 0.0927 µM) with P. mirabilis 1; at most 0.025 µg/mL in the assay with P. vulgaris IAM 1025.

On to `Nc1nc(/C(=N/OC2CC2)C(=O)N[C@@H]2C(=O)N3C(C(=O)O)=C(CSc4ccc5nnnn5n4)CS[C@H]23)cs1` [(4)], for which the MIC with S. aureus 209P JC-1 was 0.39 µg/mL (≈ 0.679 µM); with E. coli 31, at most 0.025 µg/mL; with E. coli 58, 0.05 µg/mL (≈ 0.087 µM); with P. mirabilis 1, 0.1 µg/mL (≈ 0.174 µM); with P. vulgaris IAM 1025 it was 0.05 µg/mL (≈ 0.087 µM).

Turning to `Nc1nc(/C(=N/OC2CC2)C(=O)N[C@@H]2C(=O)N3C(C(=O)[O-])=C(C[n+]4ccccc4)CS[C@H]23)ns1` [(10)], the MIC in the assay on S. aureus 209P JC-1 is 0.78 µg/mL (≈ 1.56 µM); in the assay on E. coli 31, under 0.025 µg/mL; with E. coli 58 it was 0.2 µg/mL (≈ 0.399 µM); with P. mirabilis 1, 0.2 µg/mL (≈ 0.399 µM); in the assay on P. vulgaris IAM 1025 it was 0.1 µg/mL (≈ 0.199 µM).

For `Nc1nc(/C(=N/OC2CC2)C(=O)N[C@@H]2C(=O)N3C(C(=O)[O-])=C(C[n+]4ccccc4)CS[C@H]23)cs1` [(1)], the MIC in the assay on S. aureus 209P JC-1 is 0.39 µg/mL (≈ 0.779 µM); in the assay with E. coli 31 it was at most 0.025 µg/mL; in the assay on E. coli 58 it was 0.05 µg/mL (≈ 0.0999 µM); in the assay with P. mirabilis 1, 0.1 µg/mL (≈ 0.2 µM); in the assay with P. vulgaris IAM 1025 it was 0.05 µg/mL (≈ 0.0999 µM).

Consider `Nc1nc(/C(=N/OC2CC2(Cl)Cl)C(=O)N[C@@H]2C(=O)N3C(C(=O)[O-])=C(C[n+]4ccccc4)CS[C@H]23)cs1` (some centres unmarked) [(6)], for which the MIC in the assay with S. aureus 209P JC-1 was found to be 0.39 µg/mL (≈ 0.685 µM); with E. coli 31 it was 0.05 µg/mL (≈ 0.0878 µM); in the assay on E. coli 58 it was 0.2 µg/mL (≈ 0.351 µM); in the assay on P. mirabilis 1, 1.56 µg/mL (≈ 2.74 µM); in the assay on P. vulgaris IAM 1025 it was 0.05 µg/mL (≈ 0.0878 µM).
